# Laboratory results reported in patent US10100307B2, “Use of a reverse-transcriptase inhibitor in the prevention and treatment of degenerative diseases” (Centre National de la Recherche Scientifique, priority 2014, dated 2018).
# Columns and labels:
# [1] = tested on: Mouse embryonic midbrain neurons; assay: Formation of DSBs (gamma-H2AX foci per neuron) induced by H2O2 oxidative stress in vitro; format: cell-based; details: Stavudine 10 μM; gamma-H2AX labeling; H2O2 for 1 h; FIG. 2A; ***p<0.001, n=6
# Protocol: (§1) Embryonic midbrain neurons (embryonic day 13.5) are cultured in NBGK medium (Neurobasal® (Life Technologies) supplemented with glutamine (500 μM, SIGMA), glutamic acid (3.3 mg/ml, SIGMA), aspartic acid (3.7 mg/ml, SIGMA), anti-anti and B27® (GIBCO)). A midbrain neuron culture was incubated overnight in the presence of Stavudine (10 μM in 0.9% NaCl). A control culture was treated under the same conditions, with a solution of NaCl (0.9%). The following day, the culture medium was replaced with Neurobasal® medium (Life Technologies) not supplemented with B27® (Life Technologies), containing 5 μM of H2O2 and 10 μM Stavudine/NaCl, for 1 h (FIG. 2). Alternatively, the cells were treated with H2O2 (100 μM) in the presence of B27 for one hour. Stavudine (10 μM) was added twice, 24 hours before and during treatment with H2O2 or lipofection (FIG. 2). The neurons were then fixed with PBS 4% paraformaldehyde (PFA) for 20 min, then treated with glycine (100 mM) in PBS for 10 min. […] The number of gamma-H2AX foci per neuron was counted on several slides, then the mean was taken over more than 30 neurons. […]
# Mouse embryonic midbrain neurons (14 days' gestation), treated or untreated with an RT inhibitor (Stavudine), were subjected to an oxidative stress by addition of H2O2. […] The number of DSBs per neuron was evaluated after γ-H2AX labeling.
# primary midbrain neurons = assay: Formation of DNA breaks induced by transfection with a plasmid (wt L1) overexpressing LINE-1; format: cell-based, mouse; details: Stavudine 10 μM added 24 hours before and during lipofection; FIG. 2B; ***p<0.001, n=6
# Protocol: as §1
# [2] = tested on: TH+ neurons in the substantia nigra pars compacta; assay: 6-OHDA injection into the substantia nigra (oxidative stress in vivo), stereological count of TH+ neurons; design: species or system mice; details: 24 h after injection of 6-OHDA; Stavudine 10 μM injected 30 min before and with 6-OHDA; FIG. 3B; **p<0.01, n=5
# Protocol: For the 6-OHDA (6-hydroxydopamine) injections, anesthetized mice were placed on a stereotactic device and a burr hole was drilled in the cranium, 3.3 mm caudally and 1 mm laterally from the bregma. The needle of the syringe was aligned over the hole and descended 4 mm from the surface of the cranium, and 6-OHDA (2 μl; 0.8 μg/μl Sigma) or control (NaCl 0.9%) was injected into the SNpc for more than 4 min. For the immunohistological analysis, the mice were sacrificed 6 h, 24 h or 7 days after 6-OHDA injection. For the qRT-PCR analyses, tissues from the SNpc 6 h after 6-OHDA injection were obtained by extracting 1 mm samples from 2 mm thick disks of frozen tissue, using a stereotactic apparatus. The tissues were embedded in OCT, frozen in cooled isopentane, then preserved at -80° C. before being sectioned. 20 μm thick sections of the brain at the SNpc were made. […] The labeled brain sections were visualized using a confocal fluorescence microscope (SP5, Leica). […] The microscopy images were analyzed using the VisioScan T4.18 software (ExploraNova, La Rochelle, France) as described previously ([…]. 2003). The cell numbers were quantified stereologically on sections spaced apart regularly covering all of the rostrocaudal extent of the substantia nigra, using the VisioScan stereology tool. […]
smiles,measurement,setting,value
"Cc1cn([C@H]2C=C[C@@H](CO)O2)c(=O)[nH]c1=O [Stavudine, 2′-3′-didehydro-2′-3′-dideoxythymidine]",reduction of the formation of DSBs induced by H2O2,[1],40%
same,formation of DNA breaks induced by wt L1 plasmid overexpressing LINE-1,primary midbrain neurons,suppressed
same,number of TH+ neurons in the substantia nigra pars compacta (cell death after oxidative stress in vivo),[2],higher
